In ChEMBL document CHEMBL4425165, “Discovery of Pyrazolo[1,5-a]pyrimidine TTK Inhibitors: CFI-402257 is a Potent, Selective, Bioavailable Anticancer Agent” (ACS Med Chem Lett, 2016):
≈ marks a conversion by molar mass, not a printed value.

Experiments:
MDA-MB-468 = experiment: Growth inhibition of human MDA-MB-468 cells measured after 5 days by sulforhodamine B assay; type: functional; details: MDA-MB-468, 120 h
HCT-116 [1] = experiment: Growth inhibition of human HCT116 cells measured after 5 days by sulforhodamine B assay; type: functional; details: HCT-116, 120 h
OVCAR-3 = experiment: Growth inhibition of human OVCAR3 cells measured after 5 days by sulforhodamine B assay; type: functional; details: OVCAR-3, 120 h
[2] = Solubility of the compound at pH 7.4; type: physicochemical; details: buffer
[3] = Solubility of the compound at pH 2; type: physicochemical; details: buffer
[4] = Dissociation constant, pKa of the compound; type: physicochemical
[5] = Cmax in athymic CD-1 nude mouse at 10 mg/kg, po by LC-MS/MS analysis; type: ADME, organism-based; design: dose 10 mg/kg, route oral; details: in vivo
[6] = AUC in athymic CD-1 nude mouse at 10 mg/kg, po by LC-MS/MS analysis; type: ADME, organism-based; details: in vivo
Cytochrome P450 3A4 [7] = target: T1, Cytochrome P450 3A4 (Homo sapiens, UniProt P08684); experiment: Inhibition of CYP3A4 (unknown origin) preincubated for 10 mins followed by addition of BFC as substrate measured after 10 mins in presence of NADP by fluorescence analysis; type: ADME
[8] = Clearance in Sprague-Dawley rat at 1 mg/kg, iv or 5 mg/kg, po by LC-MS/MS analysis; type: ADME, organism-based; details: in vivo
[9] = AUC (0 to infinity) in Sprague-Dawley rat at 5 mg/kg, po by LC-MS/MS analysis; type: ADME, organism-based; design: dose 5 mg/kg, time infinity, route oral; details: in vivo
[10] = Bioavailability in Sprague-Dawley rat at 5 mg/kg by LC-MS/MS analysis; type: ADME, organism-based; details: in vivo
[11] = Clearance in beagle dog at 1 mg/kg, iv or 5 mg/kg, po by LC-MS/MS analysis; type: ADME, organism-based, Canis lupus familiaris; details: in vivo
[12] = AUC (0 to infinity) in beagle dog at 5 mg/kg, po by LC-MS/MS analysis; type: ADME, organism-based, Canis lupus familiaris; design: dose 5 mg/kg, route oral, time infinity; details: in vivo
[13] = Bioavailability in beagle dog at 5 mg/kg by LC-MS/MS analysis; type: ADME, organism-based, Canis lupus familiaris; details: in vivo
HCT-116 [14] = experiment: Antitumor activity against human HCT116 cells xenografted in athymic nude mouse assessed as tumor growth inhibition at 6.5 mg/kg, po qd measured on day 21; type: functional; details: HCT-116, po, 504 h, read-out: TGI
HT-29 = experiment: Antitumor activity against human HT-29 cells xenografted in athymic nude mouse assessed as tumor growth inhibition at 6.5 mg/kg, po qd measured on day 21; type: functional; details: HT-29, po, 504 h, read-out: TGI
[15] = Toxicity in po dosed athymic nude mouse; type: organism-based; details: in vivo
[16] = Drug uptake in po dosed mouse plasma; type: ADME, organism-based; details: in vivo
[17] = target: T2, Dual specificity protein kinase TTK (Homo sapiens, UniProt P33981)
T2 sequence (P33981 whole entry): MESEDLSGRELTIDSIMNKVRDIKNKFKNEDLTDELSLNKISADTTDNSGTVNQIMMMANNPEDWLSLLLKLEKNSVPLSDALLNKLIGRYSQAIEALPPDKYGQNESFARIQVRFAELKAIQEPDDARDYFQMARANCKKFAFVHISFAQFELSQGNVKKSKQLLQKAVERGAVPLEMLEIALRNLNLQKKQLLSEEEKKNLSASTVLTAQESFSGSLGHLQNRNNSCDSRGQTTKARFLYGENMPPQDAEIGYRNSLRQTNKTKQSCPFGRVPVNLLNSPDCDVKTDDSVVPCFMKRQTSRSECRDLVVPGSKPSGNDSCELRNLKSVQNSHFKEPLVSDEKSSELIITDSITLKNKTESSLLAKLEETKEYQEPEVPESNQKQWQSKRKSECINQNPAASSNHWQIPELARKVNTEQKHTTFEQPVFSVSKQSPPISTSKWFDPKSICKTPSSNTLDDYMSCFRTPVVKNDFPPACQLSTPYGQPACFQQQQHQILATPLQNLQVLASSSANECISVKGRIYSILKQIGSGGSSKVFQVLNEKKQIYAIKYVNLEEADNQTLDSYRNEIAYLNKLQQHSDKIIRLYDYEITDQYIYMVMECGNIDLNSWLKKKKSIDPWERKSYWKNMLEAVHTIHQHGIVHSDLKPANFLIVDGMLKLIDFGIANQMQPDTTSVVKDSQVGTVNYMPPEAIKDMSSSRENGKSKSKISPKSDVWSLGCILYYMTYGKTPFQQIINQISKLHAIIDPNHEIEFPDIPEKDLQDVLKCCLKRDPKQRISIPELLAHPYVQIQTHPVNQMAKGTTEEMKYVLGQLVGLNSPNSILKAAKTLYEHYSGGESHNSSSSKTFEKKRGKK

Cytochrome P450 1A2 = target: T3, Cytochrome P450 1A2 (Homo sapiens, UniProt P05177); experiment: Inhibition of CYP1A2 (unknown origin) preincubated for 10 mins followed by addition of CEC as substrate measured after 15 mins in presence of NADP by fluorescence analysis; type: ADME
T3 sequence (P05177 whole entry): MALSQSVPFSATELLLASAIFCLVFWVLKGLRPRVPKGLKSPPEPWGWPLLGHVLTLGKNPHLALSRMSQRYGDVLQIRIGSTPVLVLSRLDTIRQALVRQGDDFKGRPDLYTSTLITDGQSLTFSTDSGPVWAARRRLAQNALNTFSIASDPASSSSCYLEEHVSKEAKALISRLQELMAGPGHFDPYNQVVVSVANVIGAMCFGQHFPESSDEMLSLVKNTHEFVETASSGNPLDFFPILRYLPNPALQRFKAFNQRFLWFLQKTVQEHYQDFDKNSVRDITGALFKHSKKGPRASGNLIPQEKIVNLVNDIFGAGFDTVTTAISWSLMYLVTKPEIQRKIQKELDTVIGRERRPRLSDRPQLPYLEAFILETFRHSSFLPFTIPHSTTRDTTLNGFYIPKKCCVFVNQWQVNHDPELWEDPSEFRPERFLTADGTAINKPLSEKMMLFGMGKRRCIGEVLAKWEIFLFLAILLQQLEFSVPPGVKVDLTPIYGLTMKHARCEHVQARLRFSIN

Cytochrome P450 2D6 = Cytochrome P450 2D6 (Homo sapiens, UniProt P10635); experiment: Inhibition of CYP2D6 (unknown origin) preincubated for 10 mins followed by addition of AMMC as substrate measured after 30 mins in presence of NADP by fluorescence analysis; type: ADME
HCT-116 [18] = experiment: Antitumor activity against human HCT116 cells xenografted in athymic nude mouse assessed as tumor growth inhibition measured on day 21 relative to vehicle-treated control; type: functional
Cytochrome P450 2C9 = Cytochrome P450 2C9 (Homo sapiens, UniProt P11712); experiment: Inhibition of CYP2C9 (unknown origin) preincubated for 10 mins followed by addition of MFC as substrate measured after 45 mins in presence of NADP by fluorescence analysis; type: ADME
Cytochrome P450 2C19 = Cytochrome P450 2C19 (Homo sapiens, UniProt P33261); experiment: Inhibition of CYP2C19 (unknown origin) preincubated for 10 mins followed by addition of MFC as substrate measured after 30 mins in presence of NADP by fluorescence analysis; type: ADME
Cytochrome P450 3A4 [19] = target: T1, Cytochrome P450 3A4; experiment: Inhibition of CYP3A4 (unknown origin) preincubated for 10 mins followed by addition of DBF as substrate measured after 10 mins in presence of NADP by fluorescence analysis; type: ADME
HCT-116 [20] = experiment: Antitumor activity against human HCT116 cells xenografted in athymic nude mouse assessed as tumor growth inhibition at 5.5 mg/kg, po qd measured on day 21; type: functional; details: HCT-116, po, 504 h, read-out: TGI
[21] = Toxicity in po dosed athymic nude mouse xenografted with human HCT116 cells assessed as weight loss measured on day 21; type: organism-based; details: in vivo
[22] = Toxicity in po dosed athymic nude mouse xenografted with human HCT116 cells assessed as induction of overt adverse signs measured on day 21; type: organism-based; details: in vivo

T1 sequence (P08684 whole entry): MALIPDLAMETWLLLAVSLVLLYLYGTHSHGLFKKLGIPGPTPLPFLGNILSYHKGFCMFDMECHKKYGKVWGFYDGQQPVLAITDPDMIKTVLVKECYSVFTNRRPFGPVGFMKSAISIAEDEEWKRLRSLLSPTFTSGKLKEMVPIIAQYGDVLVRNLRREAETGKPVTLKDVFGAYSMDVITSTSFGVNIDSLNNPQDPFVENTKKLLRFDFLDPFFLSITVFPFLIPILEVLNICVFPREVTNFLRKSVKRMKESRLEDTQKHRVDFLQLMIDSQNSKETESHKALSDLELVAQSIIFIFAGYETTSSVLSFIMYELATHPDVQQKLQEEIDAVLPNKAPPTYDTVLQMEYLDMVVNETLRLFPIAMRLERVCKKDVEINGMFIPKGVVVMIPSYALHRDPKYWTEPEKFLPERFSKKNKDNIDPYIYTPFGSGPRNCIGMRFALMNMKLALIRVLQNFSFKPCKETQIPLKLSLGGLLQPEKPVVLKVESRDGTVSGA
Sequence of Cytochrome P450 2D6 (P10635 whole entry): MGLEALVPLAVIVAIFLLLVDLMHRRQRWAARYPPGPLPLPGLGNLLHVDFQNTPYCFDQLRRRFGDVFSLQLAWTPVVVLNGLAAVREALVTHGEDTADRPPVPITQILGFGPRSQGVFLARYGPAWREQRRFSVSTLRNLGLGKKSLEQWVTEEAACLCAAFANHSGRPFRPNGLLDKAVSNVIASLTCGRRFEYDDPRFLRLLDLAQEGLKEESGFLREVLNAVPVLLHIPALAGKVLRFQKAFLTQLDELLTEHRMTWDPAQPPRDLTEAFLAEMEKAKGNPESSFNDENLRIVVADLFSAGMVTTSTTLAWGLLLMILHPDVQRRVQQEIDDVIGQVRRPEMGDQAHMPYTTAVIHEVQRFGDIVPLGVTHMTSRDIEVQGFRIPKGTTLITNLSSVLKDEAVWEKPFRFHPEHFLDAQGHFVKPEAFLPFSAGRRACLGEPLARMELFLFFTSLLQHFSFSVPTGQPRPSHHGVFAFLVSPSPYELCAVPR
Sequence of Cytochrome P450 2C9 (P11712 whole entry): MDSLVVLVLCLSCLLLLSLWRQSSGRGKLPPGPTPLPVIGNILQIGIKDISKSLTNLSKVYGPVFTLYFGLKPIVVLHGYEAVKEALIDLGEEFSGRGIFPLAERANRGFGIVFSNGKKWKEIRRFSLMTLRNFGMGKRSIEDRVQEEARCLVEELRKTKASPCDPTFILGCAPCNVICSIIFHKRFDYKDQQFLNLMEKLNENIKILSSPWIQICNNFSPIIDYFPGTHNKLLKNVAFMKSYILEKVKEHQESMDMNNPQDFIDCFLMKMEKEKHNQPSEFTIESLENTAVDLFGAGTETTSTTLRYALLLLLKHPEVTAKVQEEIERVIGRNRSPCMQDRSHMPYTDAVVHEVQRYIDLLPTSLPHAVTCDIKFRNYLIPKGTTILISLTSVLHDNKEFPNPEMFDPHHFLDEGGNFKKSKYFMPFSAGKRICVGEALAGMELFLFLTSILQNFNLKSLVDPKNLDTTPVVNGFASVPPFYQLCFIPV
Sequence of Cytochrome P450 2C19 (P33261 whole entry): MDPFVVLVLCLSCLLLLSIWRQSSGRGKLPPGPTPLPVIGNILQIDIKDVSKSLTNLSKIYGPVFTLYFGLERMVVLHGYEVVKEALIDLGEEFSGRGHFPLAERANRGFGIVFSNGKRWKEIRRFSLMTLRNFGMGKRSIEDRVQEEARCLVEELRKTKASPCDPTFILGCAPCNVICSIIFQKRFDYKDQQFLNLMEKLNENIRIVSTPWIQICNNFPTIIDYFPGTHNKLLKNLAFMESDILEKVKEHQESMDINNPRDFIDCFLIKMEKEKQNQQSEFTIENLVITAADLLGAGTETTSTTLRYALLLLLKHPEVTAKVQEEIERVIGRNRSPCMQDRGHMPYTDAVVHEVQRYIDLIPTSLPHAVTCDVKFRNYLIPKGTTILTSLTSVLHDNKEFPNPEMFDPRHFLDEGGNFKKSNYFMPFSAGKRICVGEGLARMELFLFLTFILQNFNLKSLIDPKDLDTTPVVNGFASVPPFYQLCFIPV

SMILES	GI50 (MDA-MB-468) [nM]	GI50 (HCT-116 [1]) [nM]	GI50 (OVCAR-3) [nM]	solubility [2] [µg/mL]	solubility [3] [µg/mL]	pKa [4]	Cmax [5] [ng/mL]	AUC [6] [ng·h/mL]	IC50 (Cytochrome P450 3A4 [7]) [nM]	clearance [8] [mL/min/kg]	AUC(0-inf) [9] [ng·h/mL]	bioavailability [10] [%]	clearance [11] [mL/min/kg]	AUC(0-inf) [12] [ng·h/mL]	bioavailability [13] [%]	inhibition in vivo at 6.5 mg/kg (HCT-116 [14]) [%]	inhibition in vivo at 6.5 mg/kg (HT-29) [%]	MTD [15] [mg/kg]	also measured
Cc1cc(-c2cnn3c(NCCN4CCOCC4)cc(Oc4cccc(F)c4)nc23)ccc1C(=O)NC1CC1	20	1	260	1.5 (≈ 2.83 µM)	11000 (≈ 20700 µM)	6.7	1200	3600	780	34	1900	77	29	2200	77	72	41	6.5	Drug uptake [16]: Dose-dependent effect; IC50 [17]: 2.2 nM
Cc1cc(-c2cnn3c(NC[C@H]4C[C@@](C)(O)C4)cc(Oc4cccnc4)nc23)ccc1C(=O)NC1CC1 [LUVIXASERTIB]	2	2	4	3.3 (≈ 6.62 µM)	560 (≈ 1120 µM)	3.7	2500	7500	510	14	3400	53	4.9	25000	114	68	60	6.5	IC50 (Cytochrome P450 1A2): Not Active; IC50 (Cytochrome P450 2D6): Not Active; TGI (HCT-116 [18]): Dose-dependent effect; IC50 (Cytochrome P450 2C9): 13000 nM; IC50 (Cytochrome P450 2C19): 8000 nM; IC50 (Cytochrome P450 3A4 [19]): 14000 nM; inhibition in vivo at 5.5 mg/kg (HCT-116 [20]): 68%; Activity [21]: < 10%; Activity [22]: Non-Toxic
